In patent publication US7514254B2, “Plant-derived alkaline alpha-galactosidase” (The State of Israel, Ministry of Agriculture & Rural …, priority 1998, dated 2009):

Key:
[1] = target: T1, melon (Cucumis melo) fruit alkaline alpha-galactosidase Form II (Cucumis melo, UniProt Q84NI6); experiment: Substrate kinetics (Lineweaver-Burk) of alkaline alpha-galactosidase Form II; assay type: biochemical, muskmelon (Cucumis melo L. cv C-8)
T1 construct: native 102 kDa, denatured 92 kDa; assayed at pH 7.5
T1 sequence (Q84NI6 1-772): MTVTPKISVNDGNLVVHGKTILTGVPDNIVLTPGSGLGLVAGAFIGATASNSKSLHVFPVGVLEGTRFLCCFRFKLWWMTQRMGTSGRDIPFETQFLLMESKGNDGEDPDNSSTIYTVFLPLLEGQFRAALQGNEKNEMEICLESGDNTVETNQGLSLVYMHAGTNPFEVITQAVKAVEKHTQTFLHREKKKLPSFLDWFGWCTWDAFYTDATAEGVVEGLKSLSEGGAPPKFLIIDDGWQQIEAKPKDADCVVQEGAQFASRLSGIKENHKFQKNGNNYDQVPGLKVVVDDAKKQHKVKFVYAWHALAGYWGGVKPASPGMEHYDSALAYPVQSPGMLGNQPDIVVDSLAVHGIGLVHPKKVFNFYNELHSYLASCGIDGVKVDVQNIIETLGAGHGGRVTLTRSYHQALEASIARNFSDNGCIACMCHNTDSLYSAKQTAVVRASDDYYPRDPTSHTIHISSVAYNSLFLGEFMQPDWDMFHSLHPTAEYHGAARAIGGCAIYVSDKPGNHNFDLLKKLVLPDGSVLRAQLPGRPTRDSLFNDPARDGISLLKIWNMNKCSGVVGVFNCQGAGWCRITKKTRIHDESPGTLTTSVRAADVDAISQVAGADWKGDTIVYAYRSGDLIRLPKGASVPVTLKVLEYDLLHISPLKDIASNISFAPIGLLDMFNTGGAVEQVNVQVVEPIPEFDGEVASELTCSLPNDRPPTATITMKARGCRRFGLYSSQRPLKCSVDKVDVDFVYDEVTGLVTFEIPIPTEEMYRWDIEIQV
Protocol: For routine analysis and monitoring the activity in the purification steps, alpha-galactosidase was assayed as described by Smart and Pharr (“Characterization of alpha-galactosidase from cucumber leaves”, Plant Physiology, 66:731-734, 1980), using p-nitrophenyl alpha-galactoside (pNPG) as substrate. Reaction was initiated by adding 50 μl enzyme aliquot to either 200 μl 100 mM pH 5.5 McIlvaine buffer or 100 mM pH 7.5 HEPES buffer, containing 5 mM pNPG at 35 C. The reaction was terminated after 10 min by adding 1 ml of 5% (w/v) Na2CO3 and activity expressed as nmol nitrophenol per min as measured at 410 nm. […] The assay was started by adding 50 μl enzyme preparation at 35 C and terminated after 10 to 20 min by 2 min boiling.
The fractions from the DEAE-Sepharose chromatography which were active at pH 7.5 were pooled and dialyzed against buffer A for 12 h prior to loading onto an HPLC ion exchange chromatography column (Mono-Q HR 5/5, Pharmacia, Uppsala, Sweden), previously equilibrated with buffer A. Bound proteins were eluted with a linear gradient of 0.1 to 0.45 M NaCl and the active fractions were detected using pNPG as substrate at pH 7.5 as described above. […] For the further purification of Form II the active fractions of the peak II were chromatographed on hydrophobic interaction chromatography. The fractions were pooled, brought to 1 M (NH4)2SO4 and loaded on to a hydrophobic interaction column (phenyl-Sepharose CL-4B, 0.5×12 cm, Pharmacia, Uppsala, Sweden) previously equilibrated with buffer A containing 1 M (NH4)2SO4. The protein was eluted with a reverse stepwise gradient from 1 to 0 M (NH4)2SO4 with 50 mM intervals in buffer A. Fractions containing the activity peak were collected and dialyzed for 12 h against buffer A and the dialysate was concentrated by reverse dialysis against solid sucrose. The enzyme, partially purified by hydrophobic interaction chromatography, was used for the characterization of Form II. The active fractions from the hydrophobic interaction column were further purified. Active fractions were separated electrophoretically using a Mini Prep Cell (Bio-Rad Laboratories, Hercules, Calif.) for discontinuous native-PAGE with 7% polyacrylamide, according to manufacturer's instructions. Fractions (0.25 ml/fraction) were assayed at pH 7.5 with pNPG as substrate for the activity. The active fractions were pooled, concentrated by Vivaspin Concentrator (Vivascience LTD, Lincoln, England), and run in a 8% SDS-PAGE. Proteins in the SDS-PAGE were identified using Coomassie Blue staining.

[2] = test system: Cucurbita pepo leaf alkaline alpha-galactosidase ("LIV" enzyme); experiment: Substrate kinetics of Cucurbita pepo leaf alkaline alpha-galactosidase (Gaudreault and Webb); assay type: biochemical; conditions: calculated for prior art "LIV" enzyme of Gaudreault and Webb
[3] = test system: Cucurbita pepo leaf alkaline alpha-galactosidase ("LIV" enzyme); conditions: Gaudreault and Webb; alkaline form; cited from earlier work

Vmax/Km ratio [1]: 0.61 | Vmax ([1]; Lineweaver-Burk): 2.2 μmol mg^−1 protein min^−1 | Vmax/Km ratio [2]: 0.65
SMILES: OC[C@H]1O[C@H](OC[C@H]2O[C@H](OC[C@H]3O[C@H](O[C@]4(CO)O[C@H](CO)[C@@H](O)[C@@H]4O)[C@H](O)[C@@H](O)[C@@H]3O)[C@H](O)[C@@H](O)[C@H]2O)[C@H](O)[C@@H](O)[C@H]1O [Stachyose, O-alpha-D-galactopyranosyl-(1-6)-O-alpha-D-galactopyranosyl-(1-6)-O-alpha-D-glucopyranosyl-(1-2)-beta-D-fructofuranoside]
Km [3]: 4.5 mM
